From ChEMBL document CHEMBL1154302, “Cytotoxic acacic acid glycosides from the roots of Albizia coriaria” (J Nat Prod, 2009)
pIC50: −log10 of the molar value.

How the values were obtained:
[1] = system: HCT-116; assay: Cytotoxicity against human HCT116 cells after 1 hr by MTT assay; format: functional, cell-based; conditions: HCT-116, 1 h
[2] = system: HT-29; assay: Cytotoxicity against human HT-29 cells after 1 hr by MTT assay; format: functional, cell-based; conditions: HT-29, 1 h

Structure (SMILES)	pIC50 [1]	pIC50 [2]
CC(=O)O[C@H]1C(=O)[C@@]2(C)[C@H]([C@H](OC(=O)c3ccccc3)[C@]3(O)C[C@H](OC(=O)[C@H](O)[C@@H](NC(=O)c4ccccc4)c4ccccc4)C(C)=C1C3(C)C)[C@]1(OC(C)=O)CO[C@@H]1C[C@@H]2O [PACLITAXEL]	8.46	8.47
C=C[C@](C)(CC/C=C(\C)C(=O)O[C@H]1[C@H](O)[C@@H](O)[C@H](O[C@](C)(C=C)CC/C=C(\C)C(=O)O[C@H]2[C@H](O)[C@@H](O)[C@H](O[C@](C)(C=C)CC/C=C(/C)C(=O)O[C@H]3C[C@]4(C(=O)O[C@@H]5O[C@H](CO)[C@@H](O)[C@H](O)[C@H]5O[C@@H]5O[C@@H](C)[C@H](O[C@@H]6O[C@@H](CO)[C@H](O)[C@H]6O)[C@@H](O[C@@H]6O[C@H](CO)[C@@H](O)[C@H](O)[C@H]6O)[C@H]5O)[C@H](O)C[C@]5(C)C(=CC[C@@H]6[C@@]7(C)CC[C@H](O[C@@H]8O[C@H](CO[C@@H]9O[C@H](C)[C@H](O)[C@H](O)[C@H]9O)[C@@H](O)[C@H](O)[C@H]8O[C@@H]8O[C@H](CO)[C@@H](O)[C@H](O)[C@H]8O)C(C)(C)C7CC[C@]65C)[C@@H]4CC3(C)C)O[C@@H]2C)O[C@@H]1C)O[C@@H]1O[C@H](C)[C@@H](O)[C@H](O)[C@H]1O (some centres undefined) [CORIARIOSIDE A]	5.38	5.17
